# ChEMBL document CHEMBL5537132, “Reassessing the putative molecular Target(s) of potent antitubercular 2-(Alkylsulfonyl)acetamides” (2024)
# System: Mycobacterium tuberculosis
# Assay: Antitubercular activity against Mycobacterium tuberculosis H37Rv assessed as inhibition of bacterial growth by colorimetric microdilution broth assay
# Assay type: functional
# Details: not given
row,SMILES,MIC
1,NC[C@H]1O[C@@H](n2cnc3c(N)ncnc32)[C@H](O)[C@@H]1O,> 100 µg/mL

# System: Mycobacterium tuberculosis
# Assay: Antitubercular activity against Mycobacterium tuberculosis H37Rv assessed as minimum inhibitory concentration incubated for 5 days by resazurin staining based fluorescent plate reader analysis
# Assay type: functional
# Details: 120 h, time 5 day
row,SMILES,MIC90
1,CCCCCCCCCCS(=O)(=O)CC(N)=O,1.32 µg/mL
2,CCCCCCCCCCS(=O)(=O)Cc1cn(C[C@H]2O[C@H](OCc3ccccc3)[C@@H](O)[C@@H](O)[C@@H]2O)nn1,> 50 µg/mL
3,CCCCCCCCCCS(=O)(=O)Cc1cn(CCCCn2c(=O)oc3ccccc32)nn1,> 50 µg/mL
4,CCCCCCCCCCS(=O)(=O)Cc1nc2ccccc2oc1=O,5.85 µg/mL
5,CCCCCCCCCCCS(=O)(=O)CC(N)=O,1.39 µg/mL
6,CCCCCCCCCCS(=O)(=O)CC(=O)NC[C@H]1O[C@H](OCc2ccccc2)[C@@H](O)[C@@H](O)[C@@H]1O,> 50 µg/mL
7,NC(=O)CS(=O)(=O)CCCCCCCCCCc1ccccc1,13 µg/mL
8,CCCCCCCCCCS(=O)(=O)Cc1cn(CCCn2cnc3ccccc32)nn1,> 50 µg/mL
9,CCCCCCCCCCS(=O)(=O)Cc1cn(C[C@H]2O[C@@H](n3cnc4c(N)ncnc43)[C@H](O)[C@@H]2O)nn1,> 50 µg/mL
10,NC(=O)CS(=O)(=O)Cc1ccccc1,> 50 µg/mL
11,NC(=O)CS(=O)(=O)CCCCCCCCc1ccccc1,16 µg/mL

# System: Mycobacterium tuberculosis
# Assay: Antitubercular activity against Mycobacterium tuberculosis H37Rv assessed as inhibition of bacterial growth by BACTEC radiometric assay
# Assay type: functional
# Details: not given
row,SMILES,MIC
1,NC(=O)CS(=O)(=O)CCCCc1ccccc1,> 25 µg/mL
2,CCCCCCCCS(=O)(=O)CC(=O)O,> 25 µg/mL
3,NC(=O)CS(=O)(=O)CCCCCc1ccccc1,12.5 µg/mL
4,NC(=O)CS(=O)(=O)CCCCCCC1C=CC=CC1 (stereo not drawn),12.5 µg/mL

# System: Mycobacterium tuberculosis
# Assay: Antitubercular activity against Mycobacterium tuberculosis
# Assay type: functional
# Details: not given
row,SMILES,MIC
1,CCCCCCS(=O)(=O)CC(N)=O,241 µM
2,NC(=O)CS(=O)(=O)CCCCc1ccccc1,> 100 µM
3,CCCCCCCCS(=O)(=O)CC(N)=O,27 µM
4,CCCCCCCCCCCCCCCCCCS(=O)(=O)CC(N)=O,> 133 µM
5,CCCCCCCCCCS(=O)(=O)CC(N)=O,2.9 µM
6,CCCCCCCS(=O)(=O)CC(N)=O,> 113 µM
7,CCCCCCCCCCCCS(=O)(=O)CC(N)=O,43 µM
8,CCCCCCCCCCCC(=O)NS(=O)(=O)OC[C@H]1O[C@@H](n2cnc3c(N)ncnc32)[C@H](O)[C@@H]1O,0.2 µM
9,NC(=O)CS(=O)(=O)CCCCCc1ccccc1,46 µM
10,CCCCCCCCCS(=O)(=O)CC(N)=O,12 µM
11,CCCCCCCCCCCCOP(=O)(O)OC[C@H]1O[C@@H](n2cnc3c(N)ncnc32)[C@H](O)[C@@H]1O,1.9 µM
12,Nc1ncnc2c1ncn2[C@@H]1O[C@H](COS(=O)(=O)NC(=O)CCCCCCCCCCOc2ccccc2)[C@@H](O)[C@H]1O,3.1 µM
13,CCCCCCCCCOCC(=O)NS(=O)(=O)OC[C@H]1O[C@@H](n2cnc3c(N)ncnc32)[C@H](O)[C@@H]1O,0.1 µM
14,[N-]=[N+]=NCCCCCCCCCCCC(=O)NS(=O)(=O)OC[C@H]1O[C@@H](n2cnc3c(N)ncnc32)[C@H](O)[C@@H]1O,0.2 µM
15,NC(=O)CS(=O)(=O)CCCCCCC1C=CC=CC1 (stereo not drawn),44 µM
16,CCCCCCCCCCCCCCCCCCCCOP(=O)(O)OC[C@H]1O[C@@H](n2cnc3c(N)ncnc32)[C@H](O)[C@@H]1O,0.9 µM

# System: Mycobacterium tuberculosis
# Assay: Antitubercular activity against Mycobacterium tuberculosis H37Rv assessed as bacterial growth incubated for 5 days by resazurin staining based fluorescent plate reader analysis relative to control
# Assay type: functional
# Details: time 5 day
row,SMILES,Activity
1,CCCCCCCCCCS(=O)(=O)CC(=O)NC[C@H]1O[C@@H](n2cnc3c(N)ncnc32)[C@H](O)[C@@H]1O,100%
